Measured values as given in patent US20230041563A1, “N-(1,3,4-OXADIAZOL-2-YL)ARYLCARBOXAMIDES OR SALTS THEREOF, PREPARATION METHODS, HERBICIDAL COMPOSITIONS AND USES THEREOF” (priority 2018, published 2023).

Assays:
Experiment in all cases: Weeding effect in post-emergence stage (greenhouse pot spray)
Format in all cases: in vivo
Abutilon theophrasti = system: Abutilon theophrasti
Method in brief: (§1)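 Read-out: fresh-weight growth control rate scored 3 weeks after spraying, mean of three replicates. Plants treated at 2-3 leaf stage by spray tower, doses 500-15 g a.i./ha (500, 250, 125, 60, 15).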

Digitaria sanguinalis = system: Digitaria sanguinalis
Method in brief: as §1

Echinochloa crusgalli = system: Echinochloa crusgalli
Method in brief: as §1

Amaranthus retroflexus = system: Amaranthus retroflexus
From the text: (§2) The activity level criteria for plant damage (i.e., growth control rate) are as follows:
(§3) The above growth control rates are fresh weight control rates.
(§4) Experiment on weeding effect in post-emergence stage: monocotyledonous and dicotyledonous weed seeds (Descurainia sophia, Capsella bursa-pastoris, Abutilon theophrasti, Galium aparine, Stellaria media, Lithospermum arvense, rorippa indica, Alopecurus aequalis, Beckmannia syzigachne, Sclerochloa dura, Phleum paniculatum, Bromus japonicus, Aegilops tauschii, Phalaris arundinacea, Amaranthus retroflexus, Chenopodiaceae, Commelina communis, Sonchus arvensis, convolvulus arvensis, Cirsium setosum, Solanum nigrum, Acalypha australis, Digitaria sanguinalis, Echinochloa crusgalli, Setaria viridis, Setaria glauca, Leptochloa chinensis, Monochoria vaginalis, Sagittaria trifolia, Scirpus juncoides, Cyperus rotundus, Cyperus iria, Cyperus difformis, Fimbristylis, Portulaca oleracea, Xanthium sibiricum, Pharbitis nil) and major crop seeds (wheat, corn, rice, soybean, cotton, oilseed rape, millet, sorghum, potato, sesame, ricinus) were placed in plastic pots filled with soil, then covered with 0.5-2 cm of soil, allowed to grow in a good greenhouse environment. After 2 weeks of sowing, the test plants were treated in the 2 to 3 leaf stage. The tested compounds of the present invention were respectively dissolved in acetone, then added with Tween 80 and 1.5 liter/ha of emulsifiable concentrate of methyl oleate as synergist, diluted with a certain amount of water to obtain a solution with a certain concentration, and sprayed with a spray tower onto the plants. After the application, the plants were cultured for 3 weeks in the greenhouse, and then the experimental results of the weeding were counted. The doses of the used compounds were 500, 250, 125, 60, 15 g a.i./ha, and the averages were obtained by repeating for three times.

Stellaria media = system: Stellaria media
From the text: as §2, §3, §4

| Structure (SMILES) | Abutilion theophrasti (activity level) (Abutilon theophrasti; Table 2, dose 500 g a.i./ha) | Digitaria sanguinalis (activity level) (Digitaria sanguinalis; Table 2, dose 500 g a.i./ha) | Echinochloa crusgah (activity level) (Echinochloa crusgalli; Table 2, dose 500 g a.i./ha) | Amaranthus retroflexus (activity level) (Amaranthus retroflexus; Table 2, dose 500 g a.i./ha) | Abutilion theophrasti (activity level) (Abutilon theophrasti; Table 2, dose 250 g a.i./ha) | Echinochloa crusgah (activity level) (Echinochloa crusgalli; Table 2, dose 250 g a.i./ha) | Amaranthus retroflexus (activity level) (Amaranthus retroflexus; Table 2, dose 250 g a.i./ha) | other results |
| --- | --- | --- | --- | --- | --- | --- | --- | --- |
| CCCC[S+]([O-])c1c(C(F)(F)F)ccc(C(=O)Nc2nnco2)c1F (centres unmarked) [Compound 3-14] | 5 (Level 5: growth control rate is above 85%) | 5 (Level 5: growth control rate is above 85%) | 5 (Level 5: growth control rate is above 85%) | 5 (Level 5: growth control rate is above 85%) | – | – | – | Stellaria media (activity level) (Stellaria media; Table 2, dose 500 g a.i./ha): 5 (Level 5: growth control rate is above 85%) |
| CC=CC[S+]([O-])c1c(C(F)(F)F)ccc(C(=O)Nc2nnc(C)o2)c1F (centres unmarked) [Compound 1-398] | 5 (Level 5: growth control rate is above 85%) | 5 (Level 5: growth control rate is above 85%) | 5 (Level 5: growth control rate is above 85%) | 5 (Level 5: growth control rate is above 85%) | – | – | – | Stellaria media (activity level) (Stellaria media; Table 2, dose 500 g a.i./ha): 5 (Level 5: growth control rate is above 85%) |
| COC(C)C[S+]([O-])c1c(C(F)(F)F)ccc(C(=O)Nc2nnc(C)o2)c1F (centres unmarked) [Compound 1-447] | 5 (Level 5: growth control rate is above 85%) | 5 (Level 5: growth control rate is above 85%) | 5 (Level 5: growth control rate is above 85%) | 5 (Level 5: growth control rate is above 85%) | – | – | – | Stellaria media (activity level) (Stellaria media; Table 2, dose 500 g a.i./ha): 5 (Level 5: growth control rate is above 85%) |
| Cc1nnc(NC(=O)c2ccc(C(F)(F)F)c(SCCO)c2F)o1 [Compound 1-59] | 5 (Level 5: growth control rate is above 85%) | 5 (Level 5: growth control rate is above 85%) | 5 (Level 5: growth control rate is above 85%) | 5 (Level 5: growth control rate is above 85%) | – | – | – | Stellaria media (activity level) (Stellaria media; Table 2, dose 500 g a.i./ha): 5 (Level 5: growth control rate is above 85%) |
| Cc1nnc(NC(=O)c2ccc(C(F)(F)F)c([S+]([O-])CC(C)F)c2F)o1 (centres unmarked) [Compound 1-404] | – | – | – | – | – | – | – | Abutilion theophrasti (activity level) (Abutilon theophrasti; Table 2, dose 125 g a.i./ha): 5 (Level 5: growth control rate is above 85%); Digitaria sanguinalis (activity level) (Digitaria sanguinalis; Table 2, dose 125 g a.i./ha): 5 (Level 5: growth control rate is above 85%); Echinochloa crusgah (activity level) (Echinochloa crusgalli; Table 2, dose 125 g a.i./ha): 5 (Level 5: growth control rate is above 85%); Amaranthus retroflexus (activity level) (Amaranthus retroflexus; Table 2, dose 125 g a.i./ha): 5 (Level 5: growth control rate is above 85%) |
| Cc1nnc(NC(=O)c2ccc(C(F)(F)F)c([S+]([O-])CCCC#N)c2F)o1 (centres unmarked) [Compound 1-428] | 5 (Level 5: growth control rate is above 85%) | 5 (Level 5: growth control rate is above 85%) | 5 (Level 5: growth control rate is above 85%) | 5 (Level 5: growth control rate is above 85%) | – | – | – | – |
| Cc1nnc(NC(=O)c2ccc(C(F)(F)F)c([S+]([O-])CCC(F)(C(F)(F)F)C(F)(F)F)c2F)o1 (centres unmarked) [Compound 1-413] | – | 5 (Level 5: growth control rate is above 85%) | 5 (Level 5: growth control rate is above 85%) | 5 (Level 5: growth control rate is above 85%) | – | – | – | – |
| Cc1nnc(NC(=O)c2ccc(C(F)(F)F)c([S+]([O-])CCC3CC3)c2F)o1 (centres unmarked) [Compound 1-395] | 5 (Level 5: growth control rate is above 85%) | 5 (Level 5: growth control rate is above 85%) | 5 (Level 5: growth control rate is above 85%) | 5 (Level 5: growth control rate is above 85%) | – | – | – | – |
| Cc1nnc(NC(=O)c2ccc(C(F)(F)F)c([S+]([O-])CCCC(F)(F)F)c2F)o1 (centres unmarked) [Compound 1-411] | – | – | – | – | 5 (Level 5: growth control rate is above 85%) | 5 (Level 5: growth control rate is above 85%) | 5 (Level 5: growth control rate is above 85%) | Digitaria sanguinalis (activity level) (Digitaria sanguinalis; Table 2, dose 250 g a.i./ha): 5 (Level 5: growth control rate is above 85%) |
| CC(C)=NOCCSc1c(C(F)(F)F)ccc(C(=O)Nc2nnc(C)o2)c1F [Compound 1-144] | 5 (Level 5: growth control rate is above 85%) | – | 5 (Level 5: growth control rate is above 85%) | 5 (Level 5: growth control rate is above 85%) | – | – | – | Stellaria media (activity level) (Stellaria media; Table 2, dose 500 g a.i./ha): 5 (Level 5: growth control rate is above 85%) |
| CCCCS(=O)(=O)c1c(C(F)(F)F)ccc(C(=O)Nc2nnc(C)o2)c1F [Compound 1-15] | – | – | – | – | 5 (Level 5: growth control rate is above 85%) | – | 5 (Level 5: growth control rate is above 85%) | Stellaria media (activity level) (Stellaria media; Table 2, dose 250 g a.i./ha): 5 (Level 5: growth control rate is above 85%) |
| CC#CC[S+]([O-])c1c(C(F)(F)F)ccc(C(=O)Nc2nnc(C)o2)c1F (centres unmarked) [Compound 1-402] | – | – | – | – | 5 (Level 5: growth control rate is above 85%) | 5 (Level 5: growth control rate is above 85%) | 5 (Level 5: growth control rate is above 85%) | Digitaria sanguinalis (activity level) (Digitaria sanguinalis; Table 2, dose 250 g a.i./ha): 5 (Level 5: growth control rate is above 85%) |
| Cc1nnc(NC(=O)c2ccc(C(F)(F)F)c([S+]([O-])CCCF)c2F)o1 (centres unmarked) [Compound 1-403] | – | – | – | – | – | – | – | Abutilion theophrasti (activity level) (Abutilon theophrasti; Table 2, dose 125 g a.i./ha): 5 (Level 5: growth control rate is above 85%); Digitaria sanguinalis (activity level) (Digitaria sanguinalis; Table 2, dose 125 g a.i./ha): 5 (Level 5: growth control rate is above 85%); Echinochloa crusgah (activity level) (Echinochloa crusgalli; Table 2, dose 125 g a.i./ha): 5 (Level 5: growth control rate is above 85%); Amaranthus retroflexus (activity level) (Amaranthus retroflexus; Table 2, dose 125 g a.i./ha): 5 (Level 5: growth control rate is above 85%) |
| Cc1nnc(NC(=O)c2ccc(C(F)(F)F)c([S+]([O-])CCC(F)(F)C(F)(F)F)c2F)o1 (centres unmarked) [Compound 1-412] | – | – | – | – | 5 (Level 5: growth control rate is above 85%) | 5 (Level 5: growth control rate is above 85%) | 5 (Level 5: growth control rate is above 85%) | Digitaria sanguinalis (activity level) (Digitaria sanguinalis; Table 2, dose 250 g a.i./ha): 5 (Level 5: growth control rate is above 85%) |
| Cc1nnc(NC(=O)c2ccc(C(F)(F)F)c([S+]([O-])CCCCl)c2F)o1 (centres unmarked) [Compound 1-414] | – | – | – | – | 5 (Level 5: growth control rate is above 85%) | 5 (Level 5: growth control rate is above 85%) | 5 (Level 5: growth control rate is above 85%) | Digitaria sanguinalis (activity level) (Digitaria sanguinalis; Table 2, dose 250 g a.i./ha): 5 (Level 5: growth control rate is above 85%) |
| C#CCC[S+]([O-])c1c(C(F)(F)F)ccc(C(=O)Nc2nnc(C)o2)c1F (centres unmarked) [Compound 1-401] | – | – | – | – | 5 (Level 5: growth control rate is above 85%) | 5 (Level 5: growth control rate is above 85%) | 5 (Level 5: growth control rate is above 85%) | Digitaria sanguinalis (activity level) (Digitaria sanguinalis; Table 2, dose 250 g a.i./ha): 5 (Level 5: growth control rate is above 85%) |
| Cc1nnc(NC(=O)c2ccc(C(F)(F)F)c([S+]([O-])CCC#N)c2F)o1 (centres unmarked) [Compound 1-427] | 5 (Level 5: growth control rate is above 85%) | 5 (Level 5: growth control rate is above 85%) | 5 (Level 5: growth control rate is above 85%) | 5 (Level 5: growth control rate is above 85%) | – | – | – | – |
| Cc1nnc(NC(=O)c2ccc(C(F)(F)F)c(SC(C)C)c2F)o1 [Compound 1-10] | – | – | – | – | 5 (Level 5: growth control rate is above 85%) | 5 (Level 5: growth control rate is above 85%) | 5 (Level 5: growth control rate is above 85%) | Stellaria media (activity level) (Stellaria media; Table 2, dose 250 g a.i./ha): 5 (Level 5: growth control rate is above 85%) |
